This is an account of results in the NIST ThermoML archive (doi:10.1021/acs.jced.7b00321).

± gives the expanded uncertainty stated by the source.

The conditions of this series: 101 kPa, Liquid; for viscosity: Capillary tube (Ostwald / Ubbelohde) method; for mass density: Vibrating tube method.

For `CC(O)CN` (stereo not given) [1-amino-2-propanol], the viscosity (293.15 K) stood at 30.44 ± 0.65 mPa·s, the viscosity (303.15 K) is on record as 17.87 ± 0.39 mPa·s, the viscosity (313.15 K) stood at 10.79 ± 0.23 mPa·s and the viscosity (323.15 K) stood at 6.99 ± 0.15 mPa·s. The mass density (293.15 K) is listed as 960.81 ± 1 kg/m3, the mass density (303.15 K) came out at 952.25 ± 1 kg/m3, the mass density (313.15 K) amounted to 944.43 ± 1 kg/m3 and the mass density (323.15 K) stood at 936.21 ± 1 kg/m3.
With `NCCCO` [3-amino-1-propanol], the viscosity by setting is: (293.15 K) 40.26 ± 0.86 mPa·s; (303.15 K) 24.03 ± 0.52 mPa·s; (313.15 K) 15.08 ± 0.32 mPa·s; (323.15 K) 10.01 ± 0.22 mPa·s. In addition, the mass density runs as follows: (293.15 K) 987.5 ± 1 kg/m3; (303.15 K) 979.45 ± 1 kg/m3; (313.15 K) 971.67 ± 1 kg/m3; (323.15 K) 963.36 ± 1 kg/m3.
For the compound `NCCNCCO` [N-(2-aminoethyl)ethanolamine], the viscosity is on record as 136.19 ± 3.6 mPa·s (293.15 K), 71.64 ± 1.6 mPa·s (303.15 K), 39.59 ± 0.86 mPa·s (313.15 K) and 23.41 ± 0.52 mPa·s (323.15 K). Besides, the mass density reads like this: (293.15 K) 1029.14 ± 1 kg/m3; (303.15 K) 1021.45 ± 1 kg/m3; (313.15 K) 1014.18 ± 1 kg/m3; (323.15 K) 1006.54 ± 1 kg/m3.
For `NCCNCCN` [di(2-aminoethyl)amine], the viscosity (293.15 K) is recorded as 6.99 ± 0.15 mPa·s, the viscosity (303.15 K) was 4.79 ± 0.1 mPa·s, the viscosity (313.15 K) came out at 3.45 ± 0.07 mPa·s and the viscosity (323.15 K) stood at 2.6 ± 0.06 mPa·s. The mass density (293.15 K) is on record as 951.16 ± 1 kg/m3, the mass density (303.15 K) was 942.19 ± 1 kg/m3, the mass density (313.15 K) stood at 933.93 ± 1 kg/m3 and the mass density (323.15 K) was 925.42 ± 1 kg/m3.
Consider `CCO` [ethanol], for which the viscosity stood at 1.17 ± 0.02 mPa·s (293.15 K), 0.97 ± 0.02 mPa·s (303.15 K), 0.81 ± 0.02 mPa·s (313.15 K) and 0.69 ± 0.02 mPa·s (323.15 K). For the same compound, the mass density stood at 788.88 ± 1 kg/m3 (293.15 K), 781.69 ± 1 kg/m3 (303.15 K), 772.3 ± 1 kg/m3 (313.15 K) and 765.29 ± 1 kg/m3 (323.15 K).

What is called viscosity is the internal friction of a fluid under shear. As a reminder, the mass density is the mass of a sample divided by its volume.
